According to ChEMBL document CHEMBL3132750, “4-Chlorocolchicine derivatives bearing a thiourea side chain at the C-7 position as potent anticancer agents” (Medchemcomm, 2014):

Key:
HT-29 = assay: Cytotoxicity against human HT-29 cells assessed as inhibition of cell proliferation after 96 hrs; type: functional, cell-based; details: HT-29, 96 h
A549 = assay: Cytotoxicity against human A549 cells assessed as inhibition of cell proliferation after 96 hrs; type: functional, cell-based; details: A549, 96 h
HCT-116 = assay: Cytotoxicity against human HCT116 cells assessed as inhibition of cell proliferation after 96 hrs; type: functional, cell-based; details: HCT-116, 96 h
[1] = Metabolic stability in BALB/c mouse hepatic microsomes assessed per mg of microsomal protein at 1 umol/L preincubated for 5 mins by LC-MS/MS method; type: ADME, Liver, Microsome; details: 1 µM
Tubulin = Tubulin (Sus scrofa, UniProt P02554+P02550); assay: Inhibition of tubulin polymerization assessed as reduction in tubulin assembly after 5 mins using pig microtubule protein by spectrophotometry; type: protein assay

| Intrinsic clearance [1] | IC50 (Tubulin) | SMILES | IC50 (HT-29) | IC50 (A549) | IC50 (HCT-116) |
| --- | --- | --- | --- | --- | --- |
|  |  | CCNC(=O)N[C@H]1CCc2c(Cl)c(OC)c(OC)c(OC)c2-c2ccc(OC)c(=O)cc21 | 81.8 nM | 247 nM | 134 nM |
|  |  | COc1c(Cl)c2c(c(OC)c1OC)-c1ccc(OC)c(=O)cc1[C@@H](NC(=S)Nc1cc(C)on1)CC2 | 5.6 nM | 42.5 nM | 7.3 nM |
| 223 µL/min/mg |  | COc1c(Cl)c2c(c(OC)c1OC)-c1ccc(OC)c(=O)cc1[C@@H](NC(=S)Nc1n[nH]c(C)n1)CC2 | 0.3 nM | 1.7 nM | 0.5 nM |
|  |  | COc1c(Cl)c2c(c(OC)c1OC)-c1ccc(OC)c(=O)cc1[C@@H](NC(=S)Nc1ccccn1)CC2 | 34.6 nM | 170 nM | 61.7 nM |
| 4 µL/min/mg | 1110 nM | COc1c(Cl)c2c(c(OC)c1OC)-c1ccc(OC)c(=O)cc1[C@@H](NC(=S)Nc1cc(C)[nH]n1)CC2 | 0.3 nM | 2 nM | 0.3 nM |
|  |  | COc1c(Cl)c2c(c(OC)c1OC)-c1ccc(OC)c(=O)cc1[C@@H](NC(=S)N(C)CCO)CC2 | 30.4 nM | 44.9 nM | 32.6 nM |
|  |  | COc1c(Cl)c2c(c(OC)c1OC)-c1ccc(OC)c(=O)cc1[C@@H](NC(=S)Nc1cccnn1)CC2 | 6.3 nM | 39.6 nM | 13.2 nM |
|  |  | COc1ccccc1NC(=S)N[C@H]1CCc2c(Cl)c(OC)c(OC)c(OC)c2-c2ccc(OC)c(=O)cc21 | 15 nM | 77.6 nM | 29.4 nM |
|  |  | COc1cccc(NC(=S)N[C@H]2CCc3c(Cl)c(OC)c(OC)c(OC)c3-c3ccc(OC)c(=O)cc32)c1 | 0.5 nM | 23.3 nM | 1.4 nM |
|  |  | COc1c(Cl)c2c(c(OC)c1OC)-c1ccc(OC)c(=O)cc1[C@@H](NC(=S)Nc1ccccc1C#N)CC2 | 866 nM | 3800 nM | 2200 nM |
| 43 µL/min/mg |  | COc1c(Cl)c2c(c(OC)c1OC)-c1ccc(OC)c(=O)cc1[C@@H](NC(=O)N1CCCCC1)CC2 | 42.6 nM | 26.6 nM | 42.4 nM |
|  |  | COc1c(Cl)c2c(c(OC)c1OC)-c1ccc(OC)c(=O)cc1[C@@H](NC(=S)Nc1cnccn1)CC2 | 19.4 nM | 37.4 nM | 33 nM |
|  |  | COc1c(Cl)c2c(c(OC)c1OC)-c1ccc(OC)c(=O)cc1[C@@H](NC(=S)Nc1ccc(C#N)cc1)CC2 | 6.4 nM | 67.8 nM | 25 nM |
| 88 µL/min/mg |  | COc1c(Cl)c2c(c(OC)c1OC)-c1ccc(OC)c(=O)cc1[C@@H](NC(=S)Nc1nc[nH]n1)CC2 | 0.2 nM | 0.5 nM | 0.3 nM |
|  |  | COc1c(Cl)c2c(c(OC)c1OC)-c1ccc(OC)c(=O)cc1[C@@H](NC(N)=S)CC2 | 6.1 nM | 45 nM | 9 nM |
|  |  | CCCN(CCC)C(=S)N[C@H]1CCc2c(Cl)c(OC)c(OC)c(OC)c2-c2ccc(OC)c(=O)cc21 | 38.2 nM | 40.3 nM | 34.4 nM |
|  |  | COc1c(CF)c2c(c(OC)c1OC)-c1ccc(OC)c(=O)cc1[C@@H](NC(C)=O)CC2 | 2620 nM | 8790 nM | 4750 nM |
|  |  | COc1c(Cl)c2c(c(OC)c1OC)-c1ccc(OC)c(=O)cc1[C@@H](NS(=O)(=O)CC(C)C)CC2 | 36.4 nM | 40.8 nM | 33.2 nM |
|  |  | COc1ccc(NC(=S)N[C@H]2CCc3c(Cl)c(OC)c(OC)c(OC)c3-c3ccc(OC)c(=O)cc32)cc1 | 0.3 nM | 8 nM | 1.4 nM |
|  |  | COc1c(Cl)c2c(c(OC)c1OC)-c1ccc(OC)c(=O)cc1[C@@H](NC(=S)Nc1cccc(C#N)c1)CC2 | 6.7 nM | 126 nM | 25.3 nM |
|  |  | COc1c(Cl)c2c(c(OC)c1OC)-c1ccc(OC)c(=O)cc1[C@@H](NS(=O)(=O)C(C)C)CC2 | 42.2 nM | 44.9 nM | 40.7 nM |
|  |  | COc1c(Cl)c2c(c(OC)c1OC)-c1ccc(OC)c(=O)cc1[C@@H](NC(=S)Nc1cncnc1)CC2 | 154 nM | 941 nM | 177 nM |
|  |  | COc1c(Cl)c2c(c(OC)c1OC)-c1ccc(OC)c(=O)cc1[C@@H](NC(=S)N(C)C)CC2 | 8.8 nM | 10.7 nM | 8.4 nM |
|  |  | COc1c(Cl)c2c(c(OC)c1OC)-c1ccc(OC)c(=O)cc1[C@@H](NC(=S)Nc1ccncc1)CC2 | 23.5 nM | 247 nM | 34.1 nM |
|  |  | COc1c(Cl)c2c(c(OC)c1OC)-c1ccc(OC)c(=O)cc1[C@@H](NS(C)(=O)=O)CC2 | 38.6 nM | 45.4 nM | 36.9 nM |

| Intrinsic clearance [1] | IC50 (Tubulin) | SMILES | IC50 (HT-29) | IC50 (A549) | IC50 (HCT-116) |
| --- | --- | --- | --- | --- | --- |
| 37 µL/min/mg |  | COc1c(Cl)c2c(c(OC)c1OC)-c1ccc(OC)c(=O)cc1[C@@H](NC(=S)Nc1ccn(C)n1)CC2 | 0.7 nM | 5.8 nM | 1.3 nM |
|  |  | COc1c(OC)c2c(c(C(F)(F)F)c1OC)CC[C@H](NC(C)=O)c1cc(=O)c(OC)ccc1-2 | 35 nM | 55.2 nM | 37.9 nM |
| 21 µL/min/mg |  | CCN(CC)C(=O)N[C@H]1CCc2c(Cl)c(OC)c(OC)c(OC)c2-c2ccc(OC)c(=O)cc21 | 43.9 nM | 48.3 nM | 44.3 nM |
|  |  | COc1c(Cl)c2c(c(OC)c1OC)-c1ccc(OC)c(=O)cc1[C@@H](NC(=S)NCCO)CC2 | 52.7 nM | 251 nM | 89.7 nM |
|  |  | COc1c(Cl)c2c(c(OC)c1OC)-c1ccc(OC)c(=O)cc1[C@@H](NC(=S)N1CCCCC1)CC2 | 6.1 nM | 9.6 nM | 6.9 nM |
|  |  | COc1c(Cl)c2c(c(OC)c1OC)-c1ccc(OC)c(=O)cc1[C@@H](NC(=O)NC(C)C)CC2 | 181 nM | 289 nM | 189 nM |
|  |  | COc1c(Cl)c2c(c(OC)c1OC)-c1ccc(OC)c(=O)cc1[C@@H](NC(=S)N1CCCC1)CC2 | 7.5 nM | 12.2 nM | 7.2 nM |
|  |  | CNC(=S)N[C@H]1CCc2c(Cl)c(OC)c(OC)c(OC)c2-c2ccc(OC)c(=O)cc21 | 2.8 nM | 10.9 nM | 6.3 nM |
|  |  | COc1c(Cl)c2c(c(OC)c1OC)-c1ccc(OC)c(=O)cc1[C@@H](NC(=S)Nc1nccs1)CC2 | 1.1 nM | 10.1 nM | 6.5 nM |
|  |  | CCCCNC(=S)N[C@H]1CCc2c(Cl)c(OC)c(OC)c(OC)c2-c2ccc(OC)c(=O)cc21 | 1 nM | 7.4 nM | 1.8 nM |
|  |  | CCCCCCNC(=S)N[C@H]1CCc2c(Cl)c(OC)c(OC)c(OC)c2-c2ccc(OC)c(=O)cc21 | 176 nM | 212 nM | 171 nM |
|  |  | COc1c(Cl)c2c(c(OC)c1OC)-c1ccc(OC)c(=O)cc1[C@@H](NC(=S)Nc1cccnc1)CC2 | 31.6 nM | 186 nM | 41.7 nM |
|  |  | CCCNC(=S)N[C@H]1CCc2c(Cl)c(OC)c(OC)c(OC)c2-c2ccc(OC)c(=O)cc21 | 1.6 nM | 9.9 nM | 4.3 nM |
|  |  | COc1c(Cl)c2c(c(OC)c1OC)-c1ccc(OC)c(=O)cc1[C@@H](NC(=S)Nc1ncn(C)n1)CC2 | 6 nM | 34.8 nM | 8.8 nM |
|  |  | COc1c(Cl)c2c(c(OC)c1OC)-c1ccc(OC)c(=O)cc1[C@@H](NC(=S)Nc1cccc(N(C)C)c1)CC2 | 4.4 nM | 38.4 nM | 24.2 nM |
| 5 µL/min/mg |  | CCS(=O)(=O)N[C@H]1CCc2c(Cl)c(OC)c(OC)c(OC)c2-c2ccc(OC)c(=O)cc21 | 42.6 nM | 48.1 nM | 39.9 nM |
|  |  | COc1c(Cl)c2c(c(OC)c1OC)-c1ccc(OC)c(=O)cc1[C@@H](NS(=O)(=O)c1ccccc1)CC2 | 8.7 nM | 36.8 nM | 25.8 nM |
|  |  | COc1c(Cl)c2c(c(OC)c1OC)-c1ccc(OC)c(=O)cc1[C@@H](NC(=O)N(C)C)CC2 | 53.2 nM | 192 nM | 50.4 nM |
|  |  | COc1c(Cl)c2c(c(OC)c1OC)-c1ccc(OC)c(=O)cc1[C@@H](NC(=O)Nc1ccccc1)CC2 | 35.2 nM | 48.1 nM | 36 nM |
|  |  | COc1c(Cl)c2c(c(OC)c1OC)-c1ccc(OC)c(=O)cc1[C@@H](NC(=S)Nc1ncnn1C)CC2 | 18 nM | 40.3 nM | 33.9 nM |
|  |  | COc1c(Cl)c2c(c(OC)c1OC)-c1ccc(OC)c(=O)cc1[C@@H](NC(=S)Nc1nc(C)cs1)CC2 | 0.4 nM | 7.6 nM | 2.4 nM |
|  |  | COc1c(Cl)c2c(c(OC)c1OC)-c1ccc(OC)c(=O)cc1[C@@H](NC(=S)N1CCC1)CC2 | 5.8 nM | 33.3 nM | 8.4 nM |
| 188 µL/min/mg |  | COc1c(Cl)c2c(c(OC)c1OC)-c1ccc(OC)c(=O)cc1[C@@H](NC(=S)Nc1cc[nH]n1)CC2 | 0.3 nM | 7.8 nM | 0.9 nM |
|  |  | COc1c(OC)c2c(c(C(F)F)c1OC)CC[C@H](NC(C)=O)c1cc(=O)c(OC)ccc1-2 | 48.1 nM | 55.4 nM | 45.8 nM |
|  |  | COc1c(Cl)c2c(c(OC)c1OC)-c1ccc(OC)c(=O)cc1[C@@H](NC(=S)Nc1ccccc1)CC2 | 0.4 nM | 24.4 nM | 1.2 nM |

| SMILES | Intrinsic clearance [1] | IC50 (Tubulin) | IC50 (HT-29) | IC50 (A549) | IC50 (HCT-116) |
| --- | --- | --- | --- | --- | --- |
| COc1cc2c(c(OC)c1OC)-c1ccc(OC)c(=O)cc1[C@@H](NC(C)=O)CC2 [COLCHICINE] | 1 µL/min/mg |  | 8.2 nM |  | 10.6 nM |
| COc1c(Cl)c2c(c(OC)c1OC)-c1ccc(OC)c(=O)cc1[C@@H](NC(C)=O)CC2 | 28 µL/min/mg |  | 7.9 nM | 9.9 nM | 8.1 nM |
